Test results reported in the NIST ThermoML archive (doi:10.1021/je1002237).

Assay: xn = mol fraction of the nth substance listed
Settings: 101 kPa, Liquid

ClCCl [dichloromethane] + CCOS(=O)(=O)[O-].CCn1cc[n+](C)c1
mass density [kg/m3]
Settings | 278.15 K | 283.15 K | 288.15 K | 293.15 K | 298.15 K | 303.15 K | 308.15 K
x1 = 0.0375 | 1252.39 | 1248.82 | 1245.38 | 1241.96 | 1238.55 | 1235.13 | 1231.72
x1 = 0.0731 | 1254.22 | 1250.64 | 1247.19 | 1243.72 | 1240.27 | 1236.81 | 1233.36
x1 = 0.1117 | 1255.78 | 1252.22 | 1248.72 | 1245.22 | 1241.73 | 1238.24 | 1234.76
x1 = 0.1664 | 1258.85 | 1255.31 | 1251.75 | 1248.14 | 1244.63 | 1241.08 | 1237.55
x1 = 0.2488 | 1263.74 | 1260.06 | 1256.38 | 1252.7 | 1249.03 | 1245.37 | 1241.71
x1 = 0.3308 | 1268.9 | 1265.09 | 1261.28 | 1257.48 | 1253.69 | 1249.9 | 1246.13
x1 = 0.4023 | 1274.69 | 1270.74 | 1266.78 | 1262.82 | 1258.9 | 1254.97 | 1251.05
x1 = 0.4624 | 1279.33 | 1275.26 | 1271.18 | 1267.11 | 1263.05 | 1259 | 1254.96
x1 = 0.5776 | 1290.69 | 1286.28 | 1281.87 | 1277.47 | 1273.07 | 1268.69 | 1264.32
x1 = 0.6593 | 1299.95 | 1295.23 | 1290.51 | 1285.8 | 1281.09 | 1276.39 | 1271.69
x1 = 0.7684 | 1315.91 | 1310.52 | 1305.14 | 1299.77 | 1294.38 | 1289 | 1283.61
x1 = 0.8377 | 1327.28 | 1321.28 | 1315.26 | 1309.25 | 1303.21 | 1297.16 | 1291.11
x1 = 0.8856 | 1335.58 | 1328.97 | 1322.35 | 1315.72 | 1309.05 | 1302.36 | 1295.65
x1 = 0.9207 | 1341.3 | 1334.16 | 1326.99 | 1319.81 | 1312.58 | 1305.32 | 1298.03
x1 = 0.9475 | 1345.71 | 1338.05 | 1330.35 | 1322.64 | 1314.87 | 1307.06 | 1299.21
x1 = 0.9687 | 1349.06 | 1340.91 | 1332.71 | 1324.48 | 1316.18 | 1307.85 | 1299.46
x1 = 0.9858 | 1351.32 | 1342.72 | 1334.07 | 1325.38 | 1316.61 | 1307.8 | 1298.92
x1 = 1 | 1352.84 | 1343.8 | 1334.71 | 1325.58 | 1316.34 | 1307.06 | 1297.69

CCO [ethanol] + CCOS(=O)(=O)[O-].CCn1cc[n+](C)c1
x1 = 1
Settings | mass density [kg/m3]
278.15 K | 802.12
283.15 K | 797.89
288.15 K | 793.63
293.15 K | 789.37
298.15 K | 785.08
303.15 K | 780.77
308.15 K | 776.42

CO [methanol] + CCOS(=O)(=O)[O-].CCn1cc[n+](C)c1
x1 = 1
Settings | mass density [kg/m3]
278.15 K | 805.53
283.15 K | 800.85
288.15 K | 796.16
293.15 K | 791.49
298.15 K | 786.77
303.15 K | 782.05
308.15 K | 777.3

O [water] + CCOS(=O)(=O)[O-].CCn1cc[n+](C)c1
x1 = 1
Settings | mass density [kg/m3]
278.15 K | 999.96
283.15 K | 999.69
